Assay results from patent publication US20060281726A1, “Piperidine derivatives for the treatment of chemokine or h1 mediated disease state” (priority 2003, published 2006).

The compounds below were run against T1, human H1 receptor (Homo sapiens, UniProt P35367) (assay: Histamine H1 receptor binding, competition displacement of [3H]-pyrilamine). Conditions: displacement of 1 nM [3H]-pyrilamine; membranes from recombinant CHO-K1 cells expressing the human H1 receptor; 1 hour at room temperature; read-out: H1 pKi/[1328_S] (converted).
T1 construct: purchased Euroscreen SA, Brussels, Belgium ES-390-M; host or cells: CHO-K1
T1 sequence (P35367 whole entry): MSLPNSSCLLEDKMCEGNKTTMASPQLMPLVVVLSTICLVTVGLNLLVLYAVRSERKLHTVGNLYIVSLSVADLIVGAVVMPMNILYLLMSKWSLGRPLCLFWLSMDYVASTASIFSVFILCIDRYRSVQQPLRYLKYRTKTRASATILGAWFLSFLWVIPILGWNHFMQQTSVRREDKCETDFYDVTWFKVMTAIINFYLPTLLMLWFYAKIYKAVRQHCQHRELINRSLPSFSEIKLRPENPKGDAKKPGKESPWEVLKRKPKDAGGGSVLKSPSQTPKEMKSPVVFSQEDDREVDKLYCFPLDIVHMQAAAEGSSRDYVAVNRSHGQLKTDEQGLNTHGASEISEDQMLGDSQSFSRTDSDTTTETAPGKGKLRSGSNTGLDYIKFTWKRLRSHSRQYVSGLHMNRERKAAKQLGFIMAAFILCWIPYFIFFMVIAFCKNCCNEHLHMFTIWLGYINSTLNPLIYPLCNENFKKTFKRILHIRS
Procedure: Histamine H1 receptor binding activity of compounds of the invention was assessed by competition displacement of 1 nM [3H]-pyrilamine (Amersham, Bucks, Product code TRK 608, specific activity 30 Ci/mmol) to 2 μg membranes prepared from recombinant CHO-K1 cells expressing the human H1 receptor (Euroscreen SA, Brussels, Belgium, product code ES-390-M) in assay buffer (50 mM Tris pH 7.4 containing 2 mM MgCl2, 250 mM sucrose and 100 mM NaCl) for 1 hour at room temperature.
For CS(=O)(=O)c1cc(C(=O)N2CCC(CN3CCC(Oc4ccc(Cl)c(Cl)c4)CC3)CC2)ccc1O [Example 19, 4-[[4-(3,4-dichlorophenoxy)-1-piperidinyl]methyl]-1-[4-hydroxy-3-(methylsulfonyl)benzoyl]-piperidine], the Ki was 0.0316 µM. For O=C(O)c1ccccc1C(=O)N1CCC(CN2CCC(Oc3ccc(Cl)c(Cl)c3)CC2)CC1 [Example 1, 2-[[4-[[4-(3,4-dichlorophenoxy)-1-piperidinyl]methyl]-1-piperidinyl]carbonyl]-benzoic acid], the Ki was 0.316 µM. Cc1c(Cl)ccc(OC2CCN(CC3CCN(C(=O)c4ccccc4C(=O)O)CC3)CC2)c1Cl [Example 2, 2-[[4-[[4-(2,4-Dichloro-3-methylphenoxy)-1-piperidinyl]methyl]-1-piperidinyl]carbonyl]-benzoic acid] showed a Ki of 0.0631 µM. Work on Cc1c(OC2CCN(CC3CCN(C(=O)c4ccccc4C(=O)O)CC3)CC2)ccc(Cl)c1Cl [Example 3, 2-[[4-[[4-(3,4-Dichloro-2-methylphenoxy)-1-piperidinyl]methyl]-1-piperidinyl]carbonyl]-benzoic acid] yielded a Ki of 0.2 µM. O=C(O)Cc1ccccc1C(=O)N1CCC(CN2CCC(Oc3ccc(Cl)c(Cl)c3)CC2)CC1 [Example 12, 2-[[4-[[4-(3,4-dichlorophenoxy)-1-piperidinyl]methyl]-1-piperidinyl]carbonyl]-benzeneacetic acid] gave a Ki of 0.251 µM.
